From the supplement of paper PMC9663587

Experiments:
[1] = compound: CC(=O)O[C@H]1C(=O)[C@@]2(C)[C@H]([C@H](OC(=O)c3ccccc3)[C@]3(O)C[C@H](OC(=O)[C@H](O)[C@@H](NC(=O)c4ccccc4)c4ccccc4)C(C)=C1C3(C)C)[C@]1(OC(C)=O)CO[C@@H]1C[C@@H]2O [Paclitaxel]
[2] = compound: T1, CC(=O)c1c(C)c2cnc(Nc3ccc(N4CCN(CCOCCOCCOCCNC(=O)COc5cccc6c5C(=O)N(C5CCC(=O)NC5=O)C6=O)CC4)cn3)nc2n(C2CCCC2)c1=O [BSJ-03-123]
[3] = compound: CC(C)n1nc(-c2ccc3oc(N)nc3c2)c2c(N)ncnc21 [INK128/MLN0128]
[4] = compound: CCN1CCN(Cc2ccc(Nc3ncc(F)c(-c4cc(F)c5nc(C)n(C(C)C)c5c4)n3)nc2)CC1
[5] = compound: T2, CCOc1cc2ncc(C#N)c(Nc3ccc(OCc4ccccn4)c(Cl)c3)c2cc1NC(=O)/C=C/CN(C)C [Neratinib/HKI272]
[6] = compound: CC[C@@H]1C(=O)N(C)c2cnc(Nc3ccc(C(=O)N[C@H]4CC[C@H](N5CCN(CC6CC6)CC5)CC4)cc3OC)nc2N1C(C)C [Volasertib/BI6727]
[7] = compound: T3, CN(C)C(=O)c1cc2cnc(Nc3ccc(N4CCNCC4)cn3)nc2n1C1CCCC1 [LEE011/Ribociclib]
[8] = compound: CN(C)C/C=C/C(=O)Nc1ccc(C(=O)N2CCC[C@@H](Nc3ncc(Cl)c(-c4c[nH]c5ccccc45)n3)C2)cc1 [THZ531]
[9] = compound: CN(C)CC[C@H](CSc1ccccc1)Nc1ccc(S(=O)(=O)NC(=O)c2ccc(N3CCN(Cc4ccccc4-c4ccc(Cl)cc4)CC3)cc2)cc1[N+](=O)[O-] [ABT-737]
[10] = compound: COc1ccc2c(c1)[C@]1(C[C@H]1c1ccc3c(/C=C/c4ccc(CN5C[C@@H](C)O[C@@H](C)C5)cc4)n[nH]c3c1)C(=O)N2
[11] = compound: CS(=O)(=O)N1CCN(Cc2cc3nc(-c4cccc5[nH]ncc45)nc(N4CCOCC4)c3s2)CC1 [Pictilisib/GDC0941]
[12] = compound: Cc1cc(Nc2ncc(Cl)c(Nc3ccccc3S(=O)(=O)C(C)C)n2)c(OC(C)C)cc1C1CCNCC1 [Ceritinib/LDK378]
[13] = compound: Cc1nc(-c2cn3c(n2)-c2ccc(-c4cnn(C(C)(C)C(N)=O)c4)cc2OCC3)n(C(C)C)n1 [Taselisib/GDC0032]
[14] = compound: O=C1NC(=O)[C@@H](c2cn3c4c(cccc24)CCC3)[C@@H]1c1c[nH]c2ccccc12 [Tivantinib/ARQ197]
[15] = compound: C=CC(=O)Nc1ccc(C(=O)Nc2[nH]nc3c2CN(C(=O)N[C@H](CN(C)C)c2ccccc2)C3(C)C)cc1 [YKL-5-124]; assay: GR value, 72 h; higher = faster growth (1 = untreated, <0 = killing);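 also: breast cancer and non-malignant breast epithelial lines, nine half-log doses, viable cells counted by Hoechst and LIVE/DEAD dye imaging versus time-zero plates and DMSO controls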
[16] = compound: T1, BSJ-03-123; assay: as above
[17] = compound: CCN1CCN(Cc2ccc(Nc3ncc(F)c(-c4cc(F)c5nc(C)n(C(C)C)c5c4)n3)nc2)CC1; assay: as above
[18] = compound: T2, Neratinib/HKI272; assay: as above
[19] = compound: CCc1cnn2c(NCc3ccc[n+]([O-])c3)cc(N3CCCC[C@H]3CCO)nc12; assay: as above
[20] = compound: T3, LEE011/Ribociclib; assay: as above
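For GR50, 72 h in this document: breast cancer and non-malignant breast epithelial cell lines, Deep Dye Drop or Dye Drop imaging, nine half-log doses, GR normalized to time-zero plates and DMSO-only controls.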

In the case of HCC1569, the “GR50, 72 h” value [1] is reported as 0.00208 µM, the “GR50, 72 h” value [2] is reported as 2.86 µM and the “GR50, 72 h” value [3] is reported as 0.0132 µM. The “GR50, 72 h” value [4] was 4.64 µM, the “GR50, 72 h” value [5] was 0.0891 µM and the “GR50, 72 h” value [6] was 0.0189 µM. The “GR50, 72 h” value [7] was greater than 10 µM, the “GR50, 72 h” value [8] was 0.0461 µM and the “GR50, 72 h” value [9] was 1.07 µM. The “GR50, 72 h” value [10] was 0.00952 µM, the “GR50, 72 h” value [11] was 0.599 µM and the “GR50, 72 h” value [12] was 4.5 µM. The “GR50, 72 h” value [13] was 0.0552 µM, the “GR50, 72 h” value [14] was 0.992 µM and the GR value ([15]; 0.001 µM) was 0.373 GR. It also gave a GR value ([15]; 0.003162 µM) of 0.541 GR, a GR value ([15]; 0.01 µM) of 0.302 GR and a GR value ([15]; 0.03162 µM) of 0.277 GR. The GR value ([15]; 0.1 µM) was 0.443 GR, the GR value ([15]; 0.3162 µM) was 0.124 GR and the GR value ([15]; 1 µM) was 0.175 GR. It also gave a GR value ([15]; 3.162 µM) of 0.0783 GR, a GR value ([15]; 10 µM) of -0.266 GR and a GR value ([16]; 0.001 µM) of 1.01 GR. It also gave a GR value ([16]; 0.003162 µM) of 0.944 GR, a GR value ([16]; 0.01 µM) of 1.04 GR and a GR value ([16]; 0.03162 µM) of 0.922 GR. The GR value ([16]; 0.1 µM) was 1.08 GR, the GR value ([16]; 0.3162 µM) was 0.841 GR and the GR value ([16]; 1 µM) was 0.5 GR. It also gave a GR value ([16]; 3.162 µM) of 0.693 GR, a GR value ([16]; 10 µM) of -0.102 GR and a GR value ([17]; 0.001 µM) of 0.941 GR. For the same cell line, the GR value ([17]; 0.003162 µM) was 0.932 GR, the GR value ([17]; 0.01 µM) was 0.955 GR and the GR value ([17]; 0.03162 µM) was 1.05 GR. It also gave a GR value ([17]; 0.1 µM) of 0.985 GR, a GR value ([17]; 0.3162 µM) of 1.07 GR and a GR value ([17]; 1 µM) of 0.822 GR. It also gave a GR value ([17]; 3.162 µM) of 0.639 GR, a GR value ([17]; 10 µM) of 0.0637 GR and a GR value ([18]; 0.0003162 µM) of 0.95 GR. For the same cell line, the GR value ([18]; 0.001 µM) was 0.948 GR, the GR value ([18]; 0.003162 µM) was 0.863 GR and the GR value ([18]; 0.01 µM) was 0.708 GR. It also gave a GR value ([18]; 0.03162 µM) of 0.612 GR, a GR value ([18]; 0.1 µM) of 0.537 GR and a GR value ([18]; 0.3162 µM) of 0.363 GR. For the same cell line, the GR value ([18]; 1 µM) was 0.225 GR, the GR value ([18]; 3.162 µM) was 0.124 GR and the GR value ([19]; 0.0001 µM) was 1.03 GR. It also gave a GR value ([19]; 0.0003162 µM) of 0.932 GR, a GR value ([19]; 0.001 µM) of 1.06 GR and a GR value ([19]; 0.003162 µM) of 0.984 GR. The GR value ([19]; 0.01 µM) was 0.928 GR, the GR value ([19]; 0.03162 µM) was -0.0195 GR and the GR value ([19]; 0.1 µM) was -0.224 GR. For the same cell line, the GR value ([19]; 0.3162 µM) was -0.229 GR, the GR value ([19]; 1 µM) was -0.251 GR and the GR value ([20]; 0.001 µM) was 1.04 GR. For the same cell line, the GR value ([20]; 0.003162 µM) was 1.1 GR, the GR value ([20]; 0.01 µM) was 1.07 GR and the GR value ([20]; 0.03162 µM) was 0.978 GR. For the same cell line, the GR value ([20]; 0.1 µM) was 1.09 GR, the GR value ([20]; 0.3162 µM) was 0.913 GR and the GR value ([20]; 1 µM) was 1.26 GR. It also gave a GR value ([20]; 3.162 µM) of 1.32 GR and a GR value ([20]; 10 µM) of 0.86 GR.
